Test results published in publication PMC11992208, “Structural basis for the prolonged photocycle of sensory rhodopsin II revealed by serial synchrotron crystallography” (Nature Communications, 2025).

Target: T1, sensory rhodopsin II (NpSRII) (Natronomonas pharaonis, UniProt P42196)
T1 construct: gene sop2; His-tagged, expressed in E. coli BL21star from pET27a, Ni-NTA and size exclusion; crystallised in LCP
T1 sequence (P42196 1-239): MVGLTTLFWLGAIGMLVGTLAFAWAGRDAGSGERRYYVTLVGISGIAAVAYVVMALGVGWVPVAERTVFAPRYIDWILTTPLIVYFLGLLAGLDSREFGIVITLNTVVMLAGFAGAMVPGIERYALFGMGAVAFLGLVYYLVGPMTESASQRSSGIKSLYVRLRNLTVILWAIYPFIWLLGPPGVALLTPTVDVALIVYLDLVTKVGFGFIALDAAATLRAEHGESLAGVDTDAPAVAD
Assay: serial synchrotron X-ray crystallography
Assay type: binding
Settings: covalent, room temperature

| Compound | serial synchrotron X-ray crystallography (Lys205, photoisomerized in situ from all-trans retinal, M-state at partial occupancy, continuous 488 nm illumination) | serial synchrotron X-ray crystallography (protonated Schiff base to Lys205, dark resting state, LCP microcrystals) |
| --- | --- | --- |
| CC1=C(/C=C/C(C)=C/C=C/C(C)=C\C=O)C(C)(C)CCC1 [13-cis retinal] | the population of the M-state was given a 13-cis retinal | – |
| CC1=C(/C=C/C(C)=C/C=C/C(C)=C/C=O)C(C)(C)CCC1 [all-trans retinal] | – | the resting and O-state populations were refined with an all-trans retinal |
